Experimental data as given in US20250213701A1, “MEDICAMENT FOR TREATING HUMAN TUMOR BASED ON ERF3A-TARGETING PROTEOLYSIS MECHANISM” (SUZHOU DEGEN BIO-MEDICAL CO., LTD., priority 2022, published 2025).

How the values were obtained:
Assay type in all cases: cell-based, human
22Rv1 cells = test: Anti-proliferative toxicity against prostate cancer cell line 22Rv1 (CCK8); conditions: Homo sapiens, 72 h, 3 days, CCK8
How it was run: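 22Rv1 cells pre-cultured for 48 h, then exposed to compounds at 0.00001-1.0 μM final, in triplicate, for 3 days. Viability read by CCK8 absorbance at 450 nm after 1-4 h at 37 °C.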

PC-3 cells = test: Anti-proliferative toxicity against prostate cancer cell line PC-3 (CCK8); conditions: Homo sapiens, 72 h, 3 days
How it was run: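 PC-3 cells (4000/well, pre-cultured 24 h) exposed in triplicate to compound at final 0.00001-1.0 μM for 3 days at 37 °C, 5% CO2. Viability read by CCK8, 1-4 h at 37 °C, absorbance at 450 nm.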

VCaP cells = test: Anti-proliferative toxicity against prostate cancer cell line Vcap (CCK8); conditions: Homo sapiens, 72 h, 3 days, CCK8
How it was run: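 VCaP cells (DMEM, 10% FBS) seeded 20000 cells/well, cultured 72 h, then exposed in triplicate to compound at final well concentrations of 0.00001–0.16 μM for 3 days at 37 °C, 5% CO2. Viability by CCK8, 1–4 h at 37 °C, absorbance at 450 nm.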

SMILES | IC50 (22Rv1 cells) [nM] | IC50 (PC-3 cells) [nM] | IC50 (VCaP cells) [nM]
C[C@]12C=CC(=O)N[C@@H]1CC[C@@H]1[C@@H]2CC[C@]2(C)[C@@H](C(=O)Nc3cccc(NC4CCC(Nc5cccc6c5C(=O)N(C5CCC(=O)NC5=O)C6=O)CC4)c3)CC[C@@H]12 (stereo partly drawn) [C54, N-(3-((4-((4-(2-(3-(2,6-dioxopiperidine))-isoindole-1,3-dione))amino)cyclohexyl)amino)phenyl)-3-oxo-4-aza-5α-androst-1-ene-17β-carboxamide] | > 1000 | > 1000 | > 1000
C[C@]12C=CC(=O)N[C@@H]1CC[C@@H]1[C@@H]2CC[C@]2(C)[C@@H](C(=O)Nc3cc(Cl)cc(OCCCNc4cccc5c4C(=O)N(C4CCC(=O)NC4=O)C5=O)c3)CC[C@@H]12 (stereo partly drawn) [C55, N-(3-((3-((4-(2-(3-(2,6-dioxopiperidine))-isoindole-1,3-dione))amino)propyl)oxy)-5-chloro-phenyl)-3-oxo-4-aza-5α-androst-1-ene-17β-carboxamide] | 10 to 1000 | > 1000 | 10 to 1000
C[C@]12C=CC(=O)N[C@@H]1CC[C@@H]1[C@@H]2CC[C@]2(C)[C@@H](C(=O)Nc3cccc(NCCNc4cccc5c4C(=O)N(C4CCC(=O)NC4=O)C5=O)c3)CC[C@@H]12 (stereo partly drawn) [C56, N-(3-((2-((4-(2-(3-(2,6-dioxopiperidine))-isoindole-1,3-dione))amino)ethyl)amino)phenyl)-3-oxo-4-aza-5α-androst-1-ene-17β-carboxamide] | > 1000 | > 1000 | > 1000
C[C@]12C=CC(=O)N[C@@H]1CC[C@@H]1[C@@H]2CC[C@]2(C)[C@@H](C(=O)Nc3cccc(OC4CCC(Nc5cccc6c5C(=O)N(C5CCC(=O)NC5=O)C6=O)C4)c3)CC[C@@H]12 (stereo partly drawn) [C57, N-(3-((3-((4-(2-(3-(2,6-dioxopiperidine))-isoindole-1,3-dione))amino)cyclopentyl)oxy)phenyl)-3-oxo-4-aza-5α-androst-1-ene-17β-carboxamide] | 10 to 1000 | > 1000 | 10 to 1000
C[C@]12C=CC(=O)N[C@@H]1CC[C@@H]1[C@@H]2CC[C@]2(C)[C@@H](C(=O)Nc3cccc(NC4CCCC(Nc5cccc6c5C(=O)N(C5CCC(=O)NC5=O)C6=O)C4)c3)CC[C@@H]12 (stereo partly drawn) [C58, N-(3-(N—(N-(4-(2-(3-(2,6-dioxopiperidine))-isoindole-1,3-dione))cyclohexanediamine))phenyl)-3-oxo-4-aza-5α-androst-1-ene-17β-carboxamide] | 0.1 to 10 | 10 to 1000 | 0.1 to 10
C[C@]12C=CC(=O)N[C@@H]1CC[C@@H]1[C@@H]2CC[C@]2(C)[C@@H](C(=O)Nc3cccc(N[C@H]4CCC[C@H](Nc5cccc6c5C(=O)N(C5CCC(=O)NC5=O)C6=O)C4)c3)CC[C@@H]12 (stereo partly drawn) [C60, N-(3-(N—(N-(4-(2-(3-(2,6-dioxopiperidine))-isoindole-1,3-dione))-1S,3S-cyclohexanediamine))phenyl)-3-oxo-4-aza-5α-androst-1-ene-17β-carboxamide] | 10 to 1000 | > 1000 | 10 to 1000
C[C@]12C=CC(=O)N[C@@H]1CC[C@@H]1[C@@H]2CC[C@]2(C)[C@@H](C(=O)Nc3cccc(N[C@H]4CCC[C@@H](Nc5cccc6c5C(=O)N(C5CCC(=O)NC5=O)C6=O)C4)c3)CC[C@@H]12 (stereo partly drawn) [C61, N-(3-(N—(N-(4-(2-(3-(2,6-dioxopiperidine))-isoindole-1,3-dione))-1S,3R-cyclohexanediamine))phenyl)-3-oxo-4-aza-5α-androst-1-ene-17β-carboxamide] | > 1000 | > 1000 | > 1000
C[C@]12C=CC(=O)N[C@@H]1CC[C@@H]1[C@@H]2CC[C@]2(C)[C@@H](C(=O)Nc3cccc(N[C@@H]4CCC[C@@H](Nc5cccc6c5CN(C5CCC(=O)NC5=O)C6=O)C4)c3)CC[C@@H]12 (stereo partly drawn) [C62, N-(3-(N—(N-(4-(2-(3-(2,6-dioxopiperidine))-1-oxo-2,3-dihydro-1H-isoindol))-1R,3R-cyclohexanediamine))phenyl)-3-oxo-4-aza-5α-androst-1-ene-17β-carboxamide] | > 1000 | > 1000 | 10 to 1000
C[C@]12C=CC(=O)N[C@@H]1CC[C@@H]1[C@@H]2CC[C@]2(C)[C@@H](C(=O)Nc3cccc(N[C@@H]4CCC[C@@H](Nc5cccc6c5C(=O)N([C@@H]5CCC(=O)NC5=O)C6=O)C4)c3)CC[C@@H]12 [C64, N-(3-(N—(N-(4-(2-(3R-(2,6-dioxopiperidine))-isoindole-1,3-dione))-1R,3R-cyclohexanediamine))phenyl)-3-oxo-4-aza-5α-androst-1-ene-17β-carboxamide] | 0.1 to 10 | 0.1 to 10 | 0.1 to 10
C[C@]12C=CC(=O)N[C@@H]1CC[C@@H]1[C@@H]2CC[C@]2(C)[C@@H](C(=O)Nc3cccc(N[C@@H]4CCC[C@@H](Nc5cccc6c5CN([C@H]5CCC(=O)NC5=O)C6=O)C4)c3)CC[C@@H]12 [C65, N-(3-(N—(N-(4-(2-(3S-(2,6-dioxopiperidine))-1-oxo-2,3-dihydro-1H-isoindol))-1R,3R-cyclohexanediamine))phenyl)-3-oxo-4-aza-5α-androst-1-ene-17β-carboxamide] | 10 to 1000 | > 1000 | 10 to 1000
C[C@]12C=CC(=O)N[C@@H]1CC[C@@H]1[C@@H]2CC[C@]2(C)[C@@H](C(=O)Nc3cccc(N[C@@H]4CCC[C@@H](Nc5cccc6c5CN([C@@H]5CCC(=O)NC5=O)C6=O)C4)c3)CC[C@@H]12 [C66, N-(3-(N—(N-(4-(2-(3R-(2,6-dioxopiperidine))-1-oxo-2,3-dihydro-1H-isoindol))-1R,3R-cyclohexanediamine))phenyl)-3-oxo-4-aza-5α-androst-1-ene-17β-carboxamide] | > 1000 | > 1000 | > 1000
CC(C)(C)C(=O)OCN1C(=O)CC[C@H](N2C(=O)c3cccc(N[C@@H]4CCC[C@@H](Nc5cccc(NC(=O)[C@H]6CC[C@H]7[C@@H]8CC[C@H]9NC(=O)C=C[C@]9(C)[C@H]8CC[C@]67C)c5)C4)c3C2=O)C1=O [C67, N-(3-(N—(N-(4-(2-(3S-(1-pivaloyloxymethyl-2,6-dioxopiperidine))-isoindole-1,3-dione))-1R,3R-cyclohexanediamine))phenyl)-3-oxo-4-aza-5α-androst-1-ene-17β-carboxamide] | 0.1 to 10 | 0.1 to 10 | ≤ 0.1
[2H][C@@]1(Nc2cccc(NC(=O)[C@H]3CC[C@H]4[C@@H]5CC[C@H]6NC(=O)C=C[C@]6(C)[C@H]5CC[C@]34C)c2)CCC[C@@]([2H])(Nc2cccc3c2C(=O)N(C2CCC(=O)NC2=O)C3=O)C1 (stereo partly drawn) [C68, N-(3-(N—(N-(4-(2-(3-(2,6-dioxopiperidine))-isoindole-1,3-dione))-1,3-dideutero-1R,3R-cyclohexanediamine))phenyl)-3-oxo-4-aza-5α-androst-1-ene-17β-carboxamide] | 0.1 to 10 | 0.1 to 10 | ≤ 0.1
